Experimental data: US5879657A, “Radiolabeled platelet GPIIb/IIIa receptor antagonists as imaging agents for the diagnosis of thromboembolic disorders” (The Dupont Merck Pharmaceutical Company, priority 1994, dated 1999)

Legend:
[1] = test system: thrombus; assay: Arteriovenous Shunt Model; assay type: in vivo, dogs; conditions: mean ± SEM; for Arterial Conditions T/B ratio / Venous Conditions T/B ratio: T/B = thrombus/background; for Arterial Conditions Uptake (% id/g) / Venous Conditions Uptake (% id/g): extracorporeal A-V shunt, 1 hr shunt period
Experimental: Arteriovenous Shunt Model: Adult mongrel dogs of either sex (9-13 kg) were anesthetized with pentobarbital sodium (35 mg/kg, i.v.) and ventilated with room air via an endotracheal tube (12 strokes/min,25 ml/kg). For arterial pressure determination, the left carotid artery was cannulated with a saline-filled polyethylene catheter (PE-240) and connected to a Statham pressure transducer (P23ID; Oxnard, Calif.). Mean arterial blood pressure was determined via damping the pulsatile pressure signal. Heart rate was monitored using a cardiotachometer (Biotach, Grass Quincy, Ma.) triggered from a lead II electrocardiogram generated by limb leads. A jugular vein was cannulated (PE-240) for drug administration. The both femoral arteries and femoral veins were cannulated with silicon treated (Sigmacote, Sigma Chemical Co. St Louis, Mo.), saline filled polyethylene tubing (PE-200) and connected with a 5 cm section of silicon treated tubing (PE-240) to form an extracorporeal arterio-venous shunts (A-V). Shunt patency was monitored using a doppler flow system (model VF-1, Crystal Biotech Inc, Hopkinton, Ma.) and flow probe (2-2.3 mm, Titronics Med. Inst., Iowa City, Iowa) placed proximal to the locus of the shunt. All parameters were monitored continuously on a polygraph recorder (model 7D Grass) at a paper speed of […] or 25 mm/sec.
On completion of a 15 min post surgical stabilization period, an occlusive thrombus was formed by the introduction of a thrombogenic surface (4-0 braided silk thread, 5 cm in length, Ethicon Inc., Somerville, N.J.) into the shunt one shunt with the other serving as a control. Two consecutive 1 hr shunt periods were employed with the test agent administered as an infusion over 5 min beginning 5 min before insertion of the thrombogenic surface. At the end of each 1 hr shunt period the silk was carefully removed and weighed and the % incorporation determined via well counting. Thrombus weight was calculated by subtracting the weight of the silk prior to placement from the total weight of the silk on removal from the shunt. Arterial blood was withdrawn prior to the first shunt and every 30 min thereafter for determination of blood clearance, whole blood collagen-induced platelet aggregation, thrombin-induced platelet degranulation (platelet ATP release), prothrombin time and platelet count. Template bleeding time was also performed at 30 min intervals.

[2] = test system: venous thrombus; assay: Canine Deep Vein Thrombosis Model; assay type: in vivo, dogs; conditions: 1 mCi/Kg, i.v., given at reflow; jugular vein thrombi; 15, 60 and 120 min post-administration
Experimental: Canine Deep Vein Thrombosis Model: This model incorporates the triad of events (hypercoagulatible state, period of stasis, low shear environment) essential for the formation of a venous fibrin-rich actively growing thrombus. The procedure was as follows: Adult mongrel dogs of either sex (9-13 kg) were anesthetized with pentobarbital sodium (35 mg/kg,i.v.) and ventilated with room air via an endotracheal tube (12 strokes/min, 25 ml/kg). For arterial pressure determination, the right femoral artery was cannulated with a saline-filled polyethylene catheter (PE-240) and connected to a Statham pressure transducer (P23ID; Oxnard, Calif.). Mean arterial blood pressure was determined via damping the pulsatile pressure signal. Heart rate was monitored using a cardiotachometer (Biotach, Grass Quincy, Ma.) triggered from a lead II electrocardiogram generated by limb leads. The right femoral vein was cannulated (PE-240) for drug administration. A 5 cm segment of both jugular veins was isolated, freed from fascia and circumscribed with silk suture. A microthermister probe was placed on the vessel which serves as an indirect measure of venous flow. […] The agent was infused during the first 5 min of reflow and the rate of incorporation monitored using gamma scintigraphy.

Substance	Arterial Conditions T/B ratio [1]	Arterial Conditions Uptake (% id/g) [1]	Venous Conditions T/B ratio [1]	Venous Conditions Uptake (% id/g) [1]	uptake in venous thrombus (typical images, gamma scintigraphy) [2]
^99m TcO(MAMA)-Cyclo-(D-Val-NMeArg-Gly-Asp-Mamb(5-Aca)) [Example 10]	221 ± 16	5.00 ± 0.51 % id/g	7 ± 0.6	0.16 ± 0.02 % id/g	–
Cyclo-([([^99m TcO(mapt)]^- -5-Aca)D-Lysσ-NMeArg-Gly-Asp-Mamb) [Example 21]	113 ± 1	1.6 ± 0.12 % id/g	4.0 ± 2	0.06 ± 0.03 % id/g	–
Cyclo-((^125 I)D-Tyr-NMeArg-Gly-Asp-Mamb) [Example 8]	173 ± 22	1.81 ± 0.18 % id/g	19 ± 9	0.25 ± 0.15 % id/g	–
^99m Tc(tricine)2 -Cyclo(D-Val-NMeArg-Gly-Asp-Mamb(hydrazino-nicotinyl-5-Aca)) [Example 12]	111 ± 6	6.15 ± 0.66 % id/g	7.0 ± 2	0.46 ± 0.19 % id/g	uptake in a rapidly growing venous thrombus
Cyclo-(D-Val-NMeArg-Gly-Asp-Mamb([^99m TcO(MeMAG2 gaba)]^- -5-Aca)) [Example 23]	195 ± 39	5.41 ± 0.70 % id/g	7 ± 0.4	0.21 ± 0.05 % id/g	–
^99m Tc((EDDA)-Cyclo(D-Val-NMeArg-Gly-Asp-Mamb(hydrazino-nicotinyl-5-Aca)) [Example 13]	163 ± 14	8.50 ± 0.20 % id/g	33 ± 27	1.64 ± 1.32 % id/g	–
Cyclo-([[^99m TcO(mapt)]^- -D-Lys]-NMeArg-Gly-Asp-Mamb) [Example 18]	147 ± 44	0.47 ± 0.12 % id/g	13 ± 3	0.04 ± .01 % id/g	–
Cyclo-([^111 In-DTPA-D-Lys]-NMeArg-Gly-Asp-Mamb) [Example 16]	128 ± 24	0.95 ± 0.29 % id/g	14	0.08 % id/g	–
Cyclo-(D-Val-NMeArg-Gly-Asp-Mamb([^99m TcO(mapt)]^- -5-Aca)) [Example 19]	142 ± 24	5.75 ± 1.28 % id/g	13 ± 4	0.58 ± 0.22 % id/g	uptake in a rapidly growing venous thrombus
Cyclo-(D-Val-NMeArg-Gly-Asp-Mamb([^99m TcO(MA-MAMA)]-5-Aca)) [Example 32]	102	7.4 % id/g	0	0 % id/g	–
Cyclo-([[^99m TcO(MeMAG2 gaba)]^- -D-Lys]-NMeArg-Gly-Asp-Mamb) [Example 22]	158 ± 5	1.28 ± 0.44 % id/g	7 ± 4	0.045 ± 0.02 % id/g	–
[(^125 I)N-3-(4-hydroxyphenyl)propionyl]-Cyclo-(D-Lys-NMeArg-Gly-Asp-Mamb) [Example 9]	44 ± 4	2.60 ± .005 % id/g	8 ± 3	0.45 ± 0.11 % id/g	–
